Laboratory results taken from patent US8263555B2 (Alcon Research, Ltd., priority 2007, dated 2012).
Where “and” joins values, the source holds several entries; their conditions need not be identical. Equal values may be shown once.

Columns and labels:
[1] = system: Conscious Ocular Hypertensive Cynomolgus Monkey Eyes; assay: IOP response in conscious ocular hypertensive cynomolgus monkey eyes; type: in vivo; conditions: for % Change in IOP (mmHg): topical ocular 300 μg, mean ± SEM; for modulation of IOP (in words): topically administered 300 μg, conscious cynomolgus monkeys
Method: Intraocular pressure (IOP) is determined with an Alcon Pneumatonometer (Alcon Laboratories, Inc., Fort Worth, Tex.) after light corneal anesthesia with 0.1% proparacaine. Right eyes are hypertensive as a result of laser trabeculoplasty. After a baseline IOP measurement, test compound is instilled in the right eyes only of 8-10 cynomolgus monkeys. Vehicle is instilled in the right eyes of 5-6 additional animals. […] IOP measurements are also taken on left eyes (normotensive and untreated) at each of these time points. The percent change in IOP from baseline is determined for each animal for every IOP measurement (Sharif et al. J. Ocular Pharmacol. Ther. 17: 305-317, 2001; May et al., J Pharmacol Exp Ther. 306: 301-309, 2003; Sharif et al. Invest. Opthalmol. Vis. Res. 47: 4001-4010, 2006). Group mean and standard error of the mean (SEM) are calculated for each time point. […] In cases where the compound of invention has poor ocular bioavailability, the compound may need to be administered intracamerally or intravitreally in order to observe the IOP-lowering efficacy.

[2] = target: T1, BK B2-Receptor in h-CM cells (Homo sapiens, UniProt P30411); assay: Antagonism of BK-induced [Ca^2+]i mobilization in h-CM cells; type: cell-based; conditions: read-out: Antagonist Potency (Ki; nM) vs BK (10 nM) in [Ca^2+]i Mobilization Assay, mean ± SEM or individual experiments
T1 construct: we discovered and pharmacologically characterized B2-receptor proteins in h-TM, h-CM and h-NPE cells; endogenous in cells; host or cells: primary human ciliary muscle (h-CM) cells
T1 sequence (P30411 1-391): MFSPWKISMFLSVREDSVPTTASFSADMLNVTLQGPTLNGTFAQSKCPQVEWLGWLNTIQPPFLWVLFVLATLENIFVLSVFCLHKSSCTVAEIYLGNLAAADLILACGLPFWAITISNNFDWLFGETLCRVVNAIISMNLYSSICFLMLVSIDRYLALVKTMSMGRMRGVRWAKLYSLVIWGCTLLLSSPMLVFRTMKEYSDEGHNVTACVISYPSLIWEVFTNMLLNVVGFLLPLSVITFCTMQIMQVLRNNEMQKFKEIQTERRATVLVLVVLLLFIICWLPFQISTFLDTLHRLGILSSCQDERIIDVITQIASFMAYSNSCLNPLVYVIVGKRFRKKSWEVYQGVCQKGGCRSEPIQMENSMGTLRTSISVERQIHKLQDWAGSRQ
Method: (§1) Opthalmol. Vis. Res. 47: 4001-4019, 2006; Sharif et al., J. Ocular Pharmacol. Ther. 22: 291-309, 2006).
(§2) On the day of the experiment, one vial of FLIPR Calcium Assay Kit dye is re-suspended in 50 mL of a FLIPR buffer consisting of Hank's Balanced Salt Solution (HBSS), 20 mM HEPES, and 2.5 mM probenecid, pH 7.4. Cells are loaded with the calcium-sensitive dye by addition of an equal volume (50 μL) to each well of the 96-well plate and incubated with dye for 1 h at 23° C. After this time, the test compound plate and cell plate are placed in the FLIPR instrument. At the beginning of an experimental run, a signal test is performed to check the basal fluorescence signal from the dye-loaded cells and the uniformity of the signal across the plate. The basal fluorescence is adjusted between 8000-12000 counts by modifying the exposure time, the camera F-stop, or the laser power. Instrument settings for a typical assay are the following: laser power 0.3-0.6 W, camera F-stop F/2, and exposure time 0.4 sec.
(§3) Fluorescence data are collected in real-time at 1.0 sec intervals for the first 60 secs and at 6.0 sec intervals for an additional 120 secs. […] The data are then analyzed using an automated, iterative, sigmoidal curve-fitting computer program to obtain the potency and intrinsic activities of the test agents as previously described (Sharif et al. J. Pharmacol. Exp. Ther. 286: 1094-1102, 1998; Sharif et al. Invest. Opthalmol. Vis. Sci. 39:2562-2571, 1998; Kelly et al. J. Pharmacol. Exp. Ther. 304: 238-245, 2003). The sources of materials and reagents for such assays can be found in the references cited above.

[3] = target: T2, BK B2-Receptor in h-NPE cells (Homo sapiens, UniProt P30411); assay: Antagonism of BK-induced [Ca^2+]i mobilization in immortalized h-NPE cells; type: cell-based; conditions: read-out: Antagonist Potency (Ki; nM) vs BK (10 nM) in [Ca^2+]i Mobilization Assay, mean ± SEM or individual experiments
T2 construct: we discovered and pharmacologically characterized B2-receptor proteins in h-TM, h-CM and h-NPE cells; endogenous in cells; host or cells: immortalized human non-pigmented ciliary epithelial (h-NPE) cells
T2 sequence (P30411 1-391): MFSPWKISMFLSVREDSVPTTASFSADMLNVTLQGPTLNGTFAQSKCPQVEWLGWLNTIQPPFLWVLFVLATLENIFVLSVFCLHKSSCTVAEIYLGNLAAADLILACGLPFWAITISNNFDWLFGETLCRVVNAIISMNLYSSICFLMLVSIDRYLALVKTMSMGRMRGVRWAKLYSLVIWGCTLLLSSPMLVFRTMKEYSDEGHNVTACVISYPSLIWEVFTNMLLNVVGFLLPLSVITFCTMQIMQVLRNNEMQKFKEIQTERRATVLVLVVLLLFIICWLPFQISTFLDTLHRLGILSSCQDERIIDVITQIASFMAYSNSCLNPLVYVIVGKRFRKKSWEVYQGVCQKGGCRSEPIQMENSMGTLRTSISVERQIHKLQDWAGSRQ
Method: as §1, §2, §3

rabbit IOP = assay: Acute IOP response in rabbit eyes, intravitreal administration; type: in vivo; conditions: 50 μg, relative to vehicle alone
Method: IOP is determined with an applanation pneumatonometer after light corneal anesthesia with 0.1% proparacaine. After baseline IOP measurements are taken, one eye of each of 7-10 (or both eyes of 5) rabbits per compound dose is topically dosed with compound. Either the contralateral eye is dosed with vehicle or a separate group of rabbits is used for vehicle control. Subsequent IOP measurements are taken at 0.5, 1, 2, 3, and 4 hours. In cases where the compound has poor ocular bioavailability, the compound may need to be administered intracamerally or intravitreally in order to observe the IOP-lowering efficacy.
Conversely, non-peptidic BK antagonists dosed topical ocularly in the ocular hypertensive monkey eyes were ineffective at modulating IOP (see below Example 4).

[4] = target: T3, B2-receptors in h-NPE cells (Homo sapiens, UniProt P30411); assay: BK- and BK-related peptide-induced [Ca^2+]i mobilization in h-NPE cells (agonist potency); type: cell-based; conditions: BK = 100%, read-out: Intrinsic Activity (Emax, % max relative to BK)
T3 construct: we discovered and pharmacologically characterized B2-receptor proteins in h-TM, h-CM and h-NPE cells; endogenous in cells; host or cells: immortalized human non-pigmented ciliary epithelial (h-NPE) cells
T3 sequence (P30411 1-391): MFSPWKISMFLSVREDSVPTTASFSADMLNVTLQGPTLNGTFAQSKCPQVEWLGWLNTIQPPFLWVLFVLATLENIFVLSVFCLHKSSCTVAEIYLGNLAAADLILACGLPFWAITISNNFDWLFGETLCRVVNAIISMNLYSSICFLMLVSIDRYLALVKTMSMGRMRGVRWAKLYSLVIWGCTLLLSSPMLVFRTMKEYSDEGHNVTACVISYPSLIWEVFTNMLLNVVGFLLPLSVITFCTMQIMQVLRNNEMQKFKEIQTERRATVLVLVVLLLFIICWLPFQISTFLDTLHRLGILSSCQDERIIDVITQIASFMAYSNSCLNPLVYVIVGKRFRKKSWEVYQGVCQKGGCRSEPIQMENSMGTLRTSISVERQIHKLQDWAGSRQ

B2-receptor mRNA = assay: Microarray analysis of B2-receptor mRNA in TGFβ2-treated human TM cells; type: cell-based
B1-receptor mRNA = assay: Microarray analysis of B1-receptor mRNA in TGFβ2-treated human TM cells; type: cell-based; conditions: Glaucomatous h-TM cells, control 0.99 ± 0.58

## CCCC[P+](CCCC)(CCCC)Cc1ccc(NC(=O)[C@H](Cc2ccc3ccccc3c2)NC(=NC2CCCCC2)NC2CCCCC2)cc1.[Cl-] [WIN-64338]
[1]; Dose 1/1 hr post-dose
  % Change in IOP (mmHg): 1.7 ± 1.6%
[1]; Dose 1/3 hr post-dose
  % Change in IOP (mmHg): −10.4 ± 2.8%
[1]; Dose 1/6 hr post-dose
  % Change in IOP (mmHg): 1.3 ± 1.3%
[1]
  modulation of IOP (in words): failed to modulate IOP

## CNC(=O)c1ccc(/C=C/C(=O)NCC(=O)N(C)c2ccc(Cl)c(COc3cccc4ccc(C)nc34)c2Cl)cc1 [FR-165649]
[2]
  Ki: 11 nM and 4 nM
[1]; Dose 1/1 hr post-dose
  % Change in IOP (mmHg): 1.0 ± 3.1%
[1]; Dose 1/3 hr post-dose
  % Change in IOP (mmHg): 0.7 ± 3.5%
[1]; Dose 1/6 hr post-dose
  % Change in IOP (mmHg): −6.2 ± 4.7%
[1]; Dose 1/24 hr post-dose
  % Change in IOP (mmHg): −4.0 ± 3.2%
[1]
  modulation of IOP (in words): failed to modulate IOP
[3]
  Ki: 393 nM and 337 nM

## N=C(N)NCCC[C@H](N)C(=O)N1CCC[C@H]1C(=O)N1CCC[C@H]1C(=O)NCC(=O)N[C@@H](Cc1ccccc1)C(=O)N[C@@H](CO)C(=O)N1CCC[C@H]1C(=O)N[C@@H](Cc1ccccc1)C(=O)O [Des-Arg^9-BK]
Rabbit IOP
  effect on rabbit IOP: not
[4]
  Emax: 70 to 77%

B1: TGFβ2: cytokine transforming growth factor-β2 (protein, UniProt P61812 303-414, looked up)
Transforming growth factor …: ALDAAYCFRNVQDNCCLRPLYIDFKRDLGWKWIHEPKGYNANFCAGACPYLWSSDTQHSRVLSLYNTINPEASASPCCVSQDLEPLTILYYIGKTPKIEQLSNMIVKSCKCS
B2-receptor mRNA; Glaucomatous h-TM cells, after 1.5 hr, control 0.99 ± 0.04
  Normalized level of B2-receptor mRNA (GC-RMA, mean ± SEM): 0.97 ± 0.06
B2-receptor mRNA; Glaucomatous h-TM cells, after 16 hr, control 0.99 ± 0.04
  Normalized level of B2-receptor mRNA (GC-RMA, mean ± SEM): 0.24 ± 0.06
B2-receptor mRNA; Normal h-TM cells, after 1.5 hr, control 0.99 ± 0.06
  Normalized level of B2-receptor mRNA (GC-RMA, mean ± SEM): 0.68 ± 0.05
B2-receptor mRNA; Normal h-TM cells, after 16 hr, control 0.99 ± 0.06
  Normalized level of B2-receptor mRNA (GC-RMA, mean ± SEM): 0.14 ± 0.11
B1-receptor mRNA; after 1.5 hr
  Normalized level of B1-receptor mRNA (GC-RMA, mean ± SEM): 1.54 ± 0.09
B1-receptor mRNA; after 16 hr
  Normalized level of B1-receptor mRNA (GC-RMA, mean ± SEM): 0.53 ± 0.05
